Assay results: patent US20220274945A1, “SUBSTITUTED THIOPHENE CARBOXAMIDES AND DERIVATIVES THEREOF AS MICROBICIDES” (Bayer Aktiengesellschaft, priority 2019, published 2022)

Assays:
[1] = Log P by HPLC on reversed phase columns (EEC directive 79/831 Annex V.A8); assay type: physicochemical; settings: for chromatographic logP: reversed phase HPLC columns
Procedure: In the above tables, measurement of Log P values was performed according to EEC directive 79/831 Annex V.A8 by HPLC (High Performance Liquid Chromatography) on reversed phase columns with the following methods: [^a] […] If more than one Log P value is available within the same method, all the values are given and separated by “+”. Calibration was done with straight-chain alkan2-ones (with 3 to 16 carbon atoms) with known Log P values (measurement of Log P values using retention times with linear interpolation between successive alkanones). Lambda-max-values were determined using UV-spectra from 200 nm to 400 nm and the peak values of the chromatographic signals.

Botrytis cinerea = Botrytis cinerea in vitro cell test; assay type: cell-based; settings: 120 h, 20 ppm of active ingredient, liquid culture, 5 days incubation, read-out: efficacy (inhibition of fungal growth)
Procedure: • Solvent: DMSO • Culture medium: 14.6 g anhydrous D-glucose (VWR), 7.1 g Mycological Peptone (Oxoid), 1.4 g granulated Yeast Extract (Merck), QSP Iliter • Inoculum: spore suspension
Fungicides were solubilized in DMSO and the solution used to prepare the required range of concentrations. The final concentration of DMSO used in the assay was ≤[…]1%.
A spore suspension of B. cinerea was prepared and diluted to the desired spore density.
Fungicides were evaluated for their ability to inhibit spore germination and mycelium growth in liquid culture assay. The compounds were added in the desired concentration to the culture medium with spores. After 5 days incubation, fungi-toxicity of compounds was determined by spectrometric measurement of mycelium growth. Inhibition of fungal growth was determined by comparing the absorbance values in wells containing the fungicides with the absorbance in control wells without fungicides.

[2] = test system: Pseudomonas syringae pv. tomato; test: Pseudomonas syringae pv. tomato in vitro cell test; assay type: cell-based; settings: 20 ppm of active ingredient, liquid culture, 24 h incubation, read-out: efficacy (inhibition of bacteria growth)
Procedure: (§1) • Solvent: DMSO • Culture medium: LB broth medium (Luria Broth Miller) Sigma • Inoculum: bacteria suspension Compounds to be tested were solubilized in DMSO and the solution used to prepare the required range of concentrations. The final concentration of DMSO used in the assay was ≤1%. Inoculum was prepared from a pre-culture of bacteria grown in liquid medium and diluted to the desired optical density (OD). Compounds were evaluated for their ability to inhibit bacteria growth in liquid culture assay. The compounds were added in the desired concentrations to culture medium containing the bacteria suspension. After 24 h of incubation, the efficacy of compounds was determined by spectrometric measurement of bacteria growth. Inhibition was determined by comparing the absorbance values in wells containing the compounds with the absorbance in control wells without compounds.

[3] = test system: Xanthomonas campestris pv. campestris; test: Xanthomonas campestris pv. campestris in vitro cell test; assay type: cell-based; settings: 20 ppm of active ingredient, liquid culture, 24 h incubation, read-out: efficacy (inhibition of bacteria growth)
Procedure: as §1, with “Compounds” for “Compounds to be tested”, “10%.” for “≤1%.”, “active ingredients.” for “compounds.”

[4] = method [a]: LC-UV, acidic range, 0.1% formic acid in water and acetonitrile as eluent
[5] = value in the preparation example, method letter not given

Compound | LogP [1] | also measured
CCCOC(=O)C1(NC(=O)c2sc(Br)c(Br)c2Cl)CC1 [I.40] | 3.91^[a] | 
O=C(NC1(C(=O)OC2CSC2)CC1)c1sc(Cl)c(Cl)c1Br [I.71] | 3.87^[a] | 
CCCCOC(=O)C1(NC(=O)c2sc(Cl)c(Cl)c2Br)CC1 [I.29] | 4.34^[a] | 
CCOC(=O)C1(NC(=O)c2sc(Br)c(Br)c2F)CC1 [I.01, ethyl 1-{[(4,5-dibromo-3-fluoro-2-thienyl)carbonyl]amino}cyclopropanecarboxylate] |  | inhibition at 20 ppm (Botrytis cinerea): ≤ 30%; inhibition at 20 ppm [2]: ≤ 30%; chromatographic logP [1, 4]: 3.13; chromatographic logP [1, 5]: 3.13; inhibition at 20 ppm [3]: ≤ 30%
O=C(NC1(C(=O)OCC2CC2)CC1)c1sc(Cl)c(Cl)c1Br [I.46] | 4.05^[a] | 
COC(=O)C1(NC(=O)c2sc(Cl)c(Cl)c2F)CC1 [I.45] | 2.65^[a] | 
O=C(NC1(C(=O)O)CC1)c1sc(Cl)c(Cl)c1Br [I.15, 1-{[(3-bromo-4,5-dichloro-2-thienyl)carbonyl]amino}cyclopropanecarboxylic Acid] |  | inhibition at 20 ppm (Botrytis cinerea): ≤ 30%; inhibition at 20 ppm [2]: ≤ 30%; chromatographic logP [1, 4]: 2.37; chromatographic logP [1, 5]: 2.39; inhibition at 20 ppm [3]: ≤ 30%
O=C(NC1(C(=O)OC2CCC2)CC1)c1sc(Br)c(Br)c1Br [I.38] | 4.10^[a] | 
O=C(NC1(C(=O)OC2CCC2)CC1)c1sc(Br)c(Br)c1Cl [I.42] | 4.17^[a] | 
CCCOC(=O)C1(NC(=O)c2sc(Br)c(Br)c2Br)CC1 [I.39] | 3.92^[a] | 
CC(C)COC(=O)C1(NC(=O)c2sc(Cl)c(Cl)c2Br)CC1 [I.28] | 4.31^[a] | 
O=C(NC1(C(=O)OC2CCC2)CC1)c1sc(Cl)c(Cl)c1Br [I.30] | 4.07^[a] | 
O=C(NC1(C(=O)OC2CCC2)CC1)c1sc(Br)c(Br)c1I [I.35] | 3.99^[a] | 
O=C(NC1(C(=O)OC2CCCC2)CC1)c1sc(Br)c(Br)c1F [I.18] | 3.99^[a] | 
CCCCOC(=O)C1(NC(=O)c2sc(Br)c(Br)c2F)CC1 [I.21] | 3.96^[a] | 
O=C(NC1(C(=O)O)CC1)c1sc(Br)c(Br)c1F [I.02] | 2.19^[a] | 
CC(C)OC(=O)C1(NC(=O)c2sc(Br)c(Br)c2F)CC1 [I.22] | 3.52^[a] | 
CCCOC(=O)C1(NC(=O)c2sc(Br)c(Br)c2F)CC1 [I.37] | 3.54^[a] | 

Compound | LogP [1] | also measured
CC(C)COC(=O)C1(NC(=O)c2sc(Br)c(Br)c2F)CC1 [I.20] | 3.92^[a] | 
CC(C)(C)OC(=O)C1(NC(=O)c2sc(Br)c(Br)c2F)CC1 [I.19] | 3.91^[a] | 
O=C(NC1(C(=O)OCc2ccccc2)CC1)c1sc(Cl)c(Cl)c1Br [I.25] | 4.28^[a] | 
O=C(NC1(C(=O)OC2CCC2)CC1)c1sc(Br)c(Br)c1F [I.36] | 3.71^[a] | 
CCOC(=O)C1(NC(=O)c2scc(Br)c2F)CC1 [IVa.01, Ethyl 1-{[(4-bromo-3-fluoro-2-thienyl)carbonyl]amino}cyclopropanecarboxylate] |  | chromatographic logP [1, 4]: 2.37; chromatographic logP [1, 5]: 2.39
CCCOC(=O)C1(NC(=O)c2sc(Br)c(Br)c2I)CC1 [I.41] | 3.85^[a] | 
CCOC(=O)C1(NC(=O)c2sc(Cl)c(Cl)c2F)CC1 [I.44] | 3.05^[a] | 
CC(C)OC(=O)C1(NC(=O)c2sc(Cl)c(Cl)c2Br)CC1 [I.32] | 3.86^[a] | 
O=C(NC1(C(=O)OC2CCCC2)CC1)c1sc(Cl)c(Cl)c1Br [I.26] | 4.37^[a] | 
C=CCOC(=O)C1(NC(=O)c2sc(Cl)c(Cl)c2Br)CC1 [I.34] | 3.66^[a] | 
CCOC(=O)C1(NC(=O)c2sc(Cl)c(Cl)c2I)CC1 [I.04] | 3.39^[a] | 
CCCOC(=O)C1(NC(=O)c2sc(Cl)c(Cl)c2Br)CC1 [I.31] | 3.89^[a] | 
C=CCOC(=O)C1(NC(=O)c2sc(Br)c(Br)c2F)CC1 [I.24] | 3.33^[a] | 
C#CCOC(=O)C1(NC(=O)c2sc(Cl)c(Cl)c2Br)CC1 [I.33] | 3.35^[a] | 
O=C(NC1(C(=O)OC2CSC2)CC1)c1sc(Br)c(Br)c1Br [I.75] | 4.85^[a] | 
O=C(NC1(C(=O)OCc2ccccc2)CC1)c1sc(Br)c(Br)c1F [I.17] | 3.94^[a] | 
CCOC(=O)C1(NC(=O)c2sc(Cl)c(Cl)c2Br)CC1 [I.03, Ethyl 1-{[(3-bromo-4,5-dichloro-2-thienyl)carbonyl]amino}cyclopropanecarboxylate] |  | inhibition at 20 ppm (Botrytis cinerea): ≤ 30%; inhibition at 20 ppm [2]: ≤ 30%; inhibition at 20 ppm [3]: ≤ 30%

The next lines start with results.

LogP [1] | Compound | also measured
2.49^[a] | COC(=O)C1(NC(=O)c2cc(Cl)c(Cl)s2)CC1 [V.04] | 
4.44^[a] | CCCCOC(=O)C1(NC(=O)c2sc(Br)c(Br)c2Br)CC1 [I.57] | 
2.46^[a] | CCOC(=O)C1(NC(=O)c2sc(Br)cc2F)CC1 [IVb.03] | 
2.84^[a] | CCOC(=O)C1(NC(=O)c2sc(Br)cc2Cl)CC1 [IVb.01] | 
3.77^[a] | C=CCOC(=O)C1(NC(=O)c2sc(Br)c(Br)c2Br)CC1 [I.48] | 
3.16^[a] | N#CCOC(=O)C1(NC(=O)c2sc(Br)c(Br)c2Br)CC1 [I.72] | 
4.37^[a] | O=C(NC1(C(=O)OC2CCCC2)CC1)c1sc(Br)c(Br)c1I [I.59] | 
3.40^[a] | C#CCOC(=O)C1(NC(=O)c2sc(Br)c(Br)c2I)CC1 [I.51] | 
3.26^[a] | O=C(NC1(C(=O)OC2CCOCC2)CC1)c1sc(Br)c(Br)c1Br [I.68] | 
4.40^[a] | CC(C)COC(=O)C1(NC(=O)c2sc(Br)c(Br)c2Br)CC1 [I.56] | 
2.90^[a] | CCOC(=O)C1(NC(=O)c2cc(Br)c(Br)s2)CC1 [V.01] | 
2.92^[a] | CCOC(=O)C1(NC(=O)c2sc(Br)cc2Br)CC1 [IVb.05] | 
3.98^[a] | CC(C)OC(=O)C1(NC(=O)c2sc(Br)c(Br)c2Br)CC1 [I.58] | 
1.65^[a] | CCOC(=O)C1(NC(=O)c2sccc2F)CC1 [IVc.01] | 
4.97^[a] | C[Si](C)(C)COC(=O)C1(NC(=O)c2sc(Br)c(Br)c2Br)CC1 [I.69] | 
4.02^[a] | O=C(NC1(C(=O)OCC2CC2)CC1)c1sc(Br)c(Br)c1Br [I.67] | 
4.40^[a] | CC(C)(C)OC(=O)C1(NC(=O)c2sc(Br)c(Br)c2Br)CC1 [I.49] | 
3.87^[a] | CC(C)OC(=O)C1(NC(=O)c2sc(Br)c(Br)c2I)CC1 [I.62] | 
3.94^[a] | O=C(NC1(C(=O)OCC(F)(F)F)CC1)c1sc(Br)c(Br)c1Br [I.74] | 
3.23^[a] | O=C(NC1(C(=O)OC2CCOCC2)CC1)c1sc(Cl)c(Cl)c1Br [I.70] | 
4.19^[a] | O=C(NC1(C(=O)Oc2ccccc2)CC1)c1sc(Cl)c(Cl)c1Br [I.66] | 
2.98^[a] | CCOC(=O)C1(NC(=O)c2sc(Br)cc2I)CC1 [IVb.02] | 
3.91^[a] | O=C(NC1(C(=O)OCC(F)(F)F)CC1)c1sc(Cl)c(Cl)c1Br [I.64] | 
5.00^[a] | C[Si](C)(C)COC(=O)C1(NC(=O)c2sc(Cl)c(Cl)c2Br)CC1 [I.65] | 
4.47^[a] | O=C(NC1(C(=O)OC2CCCC2)CC1)c1sc(Br)c(Br)c1Br [I.55] | 
3.44^[a] | C#CCOC(=O)C1(NC(=O)c2sc(Br)c(Br)c2Br)CC1 [I.47] | 
3.71^[a] | C=CCOC(=O)C1(NC(=O)c2sc(Br)c(Br)c2I)CC1 [I.52] | 
4.37^[a] | O=C(NC1(C(=O)OCc2ccccc2)CC1)c1sc(Br)c(Br)c1Br [I.50] | 
3.25^[a] | CC(C)OC(=O)C1(NC(=O)c2cc(Br)c(Br)s2)CC1 [V.02] | 
